Results published in patent US9884891B2, “KISS1R receptor agonist compounds and use thereof for inducing ovulation in mammals” (INSTITUT NATIONAL DE LA RECHERCHE AGRONOMIQUE, priority 2013, dated 2018).
Read-outs that look alike come from different tables or passages of the source. Where a SMILES comes first, the peptide text is derived from it.

Key:
[1] = Test for proteolytic degradation of the peptide compounds in ovine serum; format: in vitro ADME, ewes of the Ile de France breed; settings: female, Ile de France, sheep
Method: In order to carry out this test, blood was collected from the jugular vein of ewes of the Ile de France breed, and centrifuged. The supernatant (serum) was stored at −20° C. until use.
The degradation in this serum of the various peptide compounds in accordance with the invention and of the comparative peptide compounds is monitored over time. To this effect, each peptide compound to be analyzed and the internal calibrant (L-phenylalaninol) are dissolved in milliQ water (0.5 mM and 6.6 mM, respectively). The commercial protease inhibitor cocktail (Sigma, ref. P8340) is supplied in solution in DMSO.
The serum and the stock solutions of peptide compounds are preheated at 39° C. for 30 minutes. Each solution of peptide compound (50 μl, i.e. a final concentration in the serum of 50 μM) and the solution of internal calibrant (25 μl) are mixed with 425 μl of serum and incubated at 39° C. The proteolytic degradation kinetics of the compounds are monitored by taking a sample, at various given times, of 75 μl of the solution, which are diluted with 150 μL of acetonitrile in order to precipitate the serum proteins. The suspension obtained is centrifuged at 14 000 revolutions/min for 10 min at 4° C.
The amount of peptide compound intact after incubation is determined by integration of the area of the peak, using L-phenylalaninol as internal calibrant. It is expressed as % of the area of the peak at time t=0.
The value corresponding to 100% of intact peptide compound is obtained by mixing 420 μl of serum, 5 μl of the inhibitor cocktail and 25 μl of the phenylalaninol solution, followed by 50 μl of peptide compound, and then by immediately treating the resulting solution according to the protocol described above.

[2] = biological target: T1, human KISS1R receptor (Homo sapiens, UniProt Q969F8); test: Intracellular calcium mobilization test in HEK293A cells expressing human KISS1R; format: cell-based; settings: for EC50: HEK293A cells expressing human KISS1R, Fluo-4NW
T1 construct: expressed in transfected cells

[3] = system: plasma LH concentration; test: In vivo activity test: plasma LH concentration in ewes after injection of the peptide compound; design: species or system ewes of the Ile de France breed; settings: for increase in the plasma concentration of LH (% of Comp.1 maximum stimulation): 1st experiment, FIG. 4
Method: The tests were carried out on ewes of the Ile de France breed, either in the anestrus period for the comparative compounds Comp.1 and Comp.3, or in the estrus period for the comparative compound Comp.1 and for the compounds in accordance with the invention C1, C4 and C6. The ewes used in the estrus period were pretreated with a vaginal sponge containing 20 mg of fluorogestone acetate (Chronogest CR sponge, Intervet) in order to block the secretion of LH and to stimulate a luteal phase.
Five days after the insertion of the sponge (for the animals in the estrus period) or the day before the test (for the animals in the anestrus period), a catheter was inserted into the jugular vein of the animal. On the day of the test, the peptide compound to be tested was injected into the catheter, at the desired dose (5 nmol/ewe), diluted in 1 ml of physiological solution. Physiological saline containing heparin (3 ml) was injected immediately after the peptide compound in order to rinse the catheter and to carry all of the compound into the animal's bloodstream.
A negative control (T) consisting of physiological solution alone was also carried out.
Before and following the injection of the test compound, blood samples were taken at variable intervals between 10 min and 1 h, for a period of between 3 h and 30 h.
The blood samples were centrifuged, and the plasma was stored at −20° C. until it was used to measure the LH concentration, according to an RIA method described in the literature (Caraty et al., 2007).
The tests were carried out on ewes of the Ile de France breed in the anestrus period, in the same way as above with reference to the 1st experiment (without any treatment with progesterone). In particular, for all the animals, the day before the test, a catheter was inserted into the jugular vein of the animal. On the day of the test, the peptide compound to be tested was injected into the catheter, at the desired dose (5 nmol/ewe), diluted in 1 ml of physiological solution.
The tests were carried out on ewes of the Ile de France breed in the anestrus period, as indicated above with reference to the 1st experiment (without any treatment with progesterone). In particular, for all the animals, the day before the test, a catheter was inserted into the jugular vein of the animal. On the day of the test, the peptide compound to be tested was injected into the catheter, at the desired dose, diluted in 1 ml of physiological solution. For each compound, the following three doses were tested: 1 nmol/ewe, 5 nmol/ewe and 15 nmol/ewe. […]
Before and following the injection of the test compound, blood samples were taken at variable intervals between 10 min and 1 h, for a period of 10 h.
The blood samples were centrifuged, and the plasma was stored at −20° C. until it was used to measure the LH concentration, according to the RIA method described in the literature (Caraty et al., 2007).

[4] = read-out: EC50, intracellular calcium mobilization of cells expressing human KISS1R (Table 2)
[5] = ovine serum, 39° C., 50 μM, 3 h, % of the area of the HPLC peak at time t = 0, read-out: % of peptide intact after 3 h of incubation in the serum
[6] = ewes in the estrus period, 5 nmol/ewe intravenous

T1 sequence (Q969F8 whole entry): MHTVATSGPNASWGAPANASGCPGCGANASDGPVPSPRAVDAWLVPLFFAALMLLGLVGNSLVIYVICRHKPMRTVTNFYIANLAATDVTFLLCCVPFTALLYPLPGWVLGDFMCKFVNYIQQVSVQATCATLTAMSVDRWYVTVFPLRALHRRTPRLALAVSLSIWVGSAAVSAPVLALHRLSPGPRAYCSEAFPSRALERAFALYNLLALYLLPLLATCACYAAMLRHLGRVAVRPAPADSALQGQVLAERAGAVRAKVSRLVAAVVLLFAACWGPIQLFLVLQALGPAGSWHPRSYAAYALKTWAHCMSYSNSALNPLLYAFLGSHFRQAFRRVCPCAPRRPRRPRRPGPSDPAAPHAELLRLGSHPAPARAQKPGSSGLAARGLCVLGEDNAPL

Question: Which remaining at 3 h, 50 μM ([1]; serum) does the source give for `CNC(=N)NCCC[C@H](NC(=O)[C@H](CC(C)C)n1cc(CNC(=O)[C@H](Cc2ccccc2)NC(=O)[C@H](CO)NC(=O)[C@H](CC(N)=O)NC(=O)[C@H](Cc2c[nH]c3ccccc23)NC(=O)[C@H](CC(N)=O)NC(=O)[C@H](Cc2ccc(O)cc2)NC(C)=O)nn1)C(=O)N[C@@H](Cc1ccc(O)cc1)C(N)=O` [Compound C3, Ac-Tyr-Asn-Trp-Asn-Ser-Phe-GlyΨ[Tz]Leu-Arg(Me)-Tyr-NH2] (HELM PEPTIDE1{[ac].Y.N.W.N.S.F.[CC(C)C[C@@H](C(=O)[*:2])n1cc(CN[*:1])nn1].[CNC(=N)NCCC[C@H](N[*:1])C(=O)[*:2]].Y.[am]}$$$$V2.0) here?
Answer: 55%

Question: What about the EC50 [2, 4] of the same compound?
Answer: 0.014 nM

Question: For `CC(=O)N[C@@H](Cc1ccc(O)cc1)C(=O)N[C@@H](CC(N)=O)C(=O)N[C@@H](Cc1c[nH]c2ccccc12)C(=O)N[C@@H](CC(N)=O)C(=O)N[C@@H](CO)C(=O)N[C@@H](Cc1ccccc1)c1cn(Cc2cn([C@@H](CC(C)C)C(=O)N[C@@H](CCCNC(=N)N)C(=O)N[C@@H](Cc3ccc(O)cc3)C(N)=O)nn2)nn1` [Compound C5, Ac-Tyr-Asn-Trp-Asn-Ser-PheΨ[Tz]GlyΨ[Tz]Leu-Arg-Tyr-NH2], which remaining at 3 h, 50 μM ([1]; serum) is on record?
Answer: 51%

Question: What about the “human KISS1R-stimulating power (in words)” value ([2]; calcium mobilization, compared with Comp.1) of the same compound?
Answer: remains, however, active, although to a lesser degree

Question: Which remaining at 3 h, 50 μM [1, 5] does the source give for “H-YNWNSFGLRY-NH2 [Comp. 1, reference compound]” here?
Answer: < 0.1%

Question: With `CCCCCCCCCCCCCCCC(=O)N[C@@H](CCC(=O)N[C@@H](Cc1ccc(O)cc1)C(=O)N[C@@H](CC(N)=O)C(=O)N[C@@H](Cc1c[nH]c2ccccc12)C(=O)N[C@@H](CC(N)=O)C(=O)N[C@@H](CO)C(=O)N[C@@H](Cc1ccccc1)C(=O)NCc1cn([C@@H](CC(C)C)C(=O)N[C@@H](CCCNC(=N)N)C(=O)N[C@@H](Cc2ccccc2)C(N)=O)nn1)C(=O)O` [Compound C13, γ-(N-hexadecanoyl-Glu-OH)Tyr-Asn-Trp-Asn-Ser-Phe-GlyΨ[Tz]Leu-Arg-Phe-NH2] (HELM PEPTIDE1{[CCCCCCCCCCCCCCCC(=O)[*:2]].[gGlu].Y.N.W.N.S.F.[CC(C)C[C@@H](C(=O)[*:2])n1cc(CN[*:1])nn1].R.F.[am]}$$$$V2.0) as the compound, how does the EC50 ([2]; compounds with serum albumin binding unit or PEG, read-out: EC50, intracellular calcium mobilization of cells expressing human KISS1R (Table 3)) read?
Answer: 0.01 nM

Question: What does the source list for `CNC(=N)NCCC[C@H](NC(=O)[C@H](CC(C)C)n1cc(CNC(=O)[C@H](Cc2ccccc2)NC(=O)[C@H](CO)NC(=O)[C@H](CC(N)=O)NC(=O)[C@H](CCCCNC(C)=O)NC(=O)[C@H](CC(N)=O)NC(=O)[C@H](Cc2ccc(O)cc2)NC(C)=O)nn1)C(=O)N[C@@H](Cc1ccc(O)cc1)C(N)=O` [Compound C4, Ac-Tyr-Asn-Lys(Ac)-Asn-Ser-Phe-GlyΨ[Tz]Leu-Arg(Me)-Tyr-NH2] (HELM PEPTIDE1{[ac].Y.N.K.N.S.F.[CC(C)C[C@@H](C(=O)[*:2])n1cc(CN[*:1])nn1].[CNC(=N)NCCC[C@H](N[*:1])C(=O)[*:2]].Y.[am]}|PEPTIDE2{[ac]}$PEPTIDE1,PEPTIDE2,4:R3-1:R2$$$V2.0)?
Answer: remaining at 3 h, 50 μM ([1]; serum): 59%; increase in the plasma concentration of LH (% of Comp.1 maximum stimulation) [3, 6]: more active than the comparative compounds Comp.1 and Comp.3

Question: With `CC(C)C[C@@H](C(=O)N[C@@H](CCCNC(=N)N)C(=O)N[C@@H](Cc1ccc(O)cc1)C(N)=O)n1cc(CNC(=O)[C@H](Cc2ccccc2)NC(=O)[C@H](CO)NC(=O)[C@H](CC(N)=O)NC(=O)[C@H](Cc2c[nH]c3ccccc23)NC(=O)[C@H](CC(N)=O)NC(=O)[C@@H](N)Cc2ccc(O)cc2)nn1` [Compound C1, H-Tyr-Asn-Trp-Asn-Ser-Phe-GlyΨ[Tz]Leu-Arg-Tyr-NH2] (HELM PEPTIDE1{Y.N.W.N.S.F.[CC(C)C[C@@H](C(=O)[*:2])n1cc(CN[*:1])nn1].R.Y.[am]}$$$$V2.0) as the compound, how does the “increase in the plasma concentration of LH (% of Comp.1 maximum stimulation)” value [3, 6] read?
Answer: more active than the comparative compounds Comp.1 and Comp.3

Question: What about the “duration of action (LH concentration over time)” value ([3]; 2nd experiment, ewes in the anestrus period, 5 nmol/ewe intravenous, FIGS. 6a-6d) of the same compound?
Answer: sustained for longer over time than the comparative compounds Comp.1 and Comp.3

Question: For `CC(C)C[C@H](NC(=O)CNC(=O)[C@H](Cc1ccccc1)NC(=O)[C@H](CO)NC(=O)[C@H](CC(N)=O)NC(=O)[C@H](Cc1c[nH]c2ccccc12)NC(=O)[C@H](CC(N)=O)NC(=O)[C@@H](N)Cc1ccc(O)cc1)C(=O)N[C@@H](CCCNC(=N)N)C(=O)N[C@@H](Cc1ccccc1)C(N)=O` [Comp. 2, reference compound], which remaining at 3 h, 50 μM [1, 5] is on record?
Answer: < 0.1%

Question: For `CNC(=N)NCCC[C@H](NC(=O)[C@H](CC(C)C)n1cc(CNC(=O)[C@H](Cc2ccccc2)NC(=O)[C@@H](NC(=O)[C@H](CC(N)=O)NC(=O)[C@@H]2C[C@@H](O)CN2C(=O)[C@@H](Cc2ccc(O)cc2)NC(C)=O)[C@@H](C)O)nn1)C(=O)N[C@@H](Cc1c[nH]c2ccccc12)C(N)=O` [Compound C7, Ac-DTyr-Hyp-Asn-Thr-Phe-GlyΨ[Tz]Leu-Arg(Me)-Trp-NH2] (HELM PEPTIDE1{[ac].[dY].[Hyp].N.T.F.[CC(C)C[C@@H](C(=O)[*:2])n1cc(CN[*:1])nn1].[CNC(=N)NCCC[C@H](N[*:1])C(=O)[*:2]].W.[am]}$$$$V2.0), which remaining at 3 h, 50 μM ([1]; serum) is on record?
Answer: 17%

Question: What about the EC50 [2, 4] of the same compound?
Answer: 0.014 nM

Question: With `CCCCCCCCCCCCCCCC(=O)N[C@@H](CCC(=O)NCCCC[C@H](NC(=O)[C@H](Cc1ccc(O)cc1)NC(C)=O)C(=O)N[C@@H](Cc1c[nH]c2ccccc12)C(=O)N[C@@H](CC(N)=O)C(=O)N[C@@H](CO)C(=O)N[C@@H](Cc1ccccc1)C(=O)NCc1cn([C@@H](CC(C)C)C(=O)N[C@@H](CCCNC(=N)N)C(=O)N[C@@H](Cc2ccc(O)cc2)C(N)=O)nn1)C(=O)O` [Compound C8, Ac-Tyr-Lys(γ-(N-hexadecanoyl-Glu-OH))-Trp-Asn-Ser-Phe-GlyΨ[Tz]Leu-Arg-Tyr-NH2] (HELM PEPTIDE1{[ac].Y.K.W.N.S.F.[CC(C)C[C@@H](C(=O)[*:2])n1cc(CN[*:1])nn1].R.Y.[am]}|PEPTIDE2{[CCCCCCCCCCCCCCCC(=O)[*:2]].[gGlu]}$PEPTIDE1,PEPTIDE2,3:R3-2:R2$$$V2.0) as the compound, how does the “duration of action (LH concentration over time)” value ([3]; 3rd experiment, ewes in the anestrus period, 1, 5 and 15 nmol/ewe intravenous, FIGS. 8a, 8b) read?
Answer: even further sustained over time, and very significantly, than the compound C2

Question: And the “LH secretion (AUC)” value ([3]; 3rd experiment, ewes in the anestrus period, 1, 5 and 15 nmol/ewe intravenous, FIGS. 9a, 9b)?
Answer: even more active than the compound C2

Question: And the “LH secretion into the plasma after intramuscular injection” value ([3]; 4th experiment, ewes in the estrus period, 15 nmol/ewe intramuscular versus intravenous, FIG. 10)?
Answer: also effective, in vivo, by intramuscular injection
